PMC10208956, “Microbial peptides activate tumour-infiltrating lymphocytes in glioblastoma” (Nature, 2023)

Assays:
Assay type in all cases: cell-based, human
[1] = tested on: sorted CD4+ PE and FITC TCRVβ+ TILs; assay: Proliferation of TCRBV-sorted CD4+ TILs (without TCRBV6.1 and TCRBV6.2); settings: sheet 6b
Excerpt: TILs expressing specific TCRBVs were isolated from bulk TILs using a panel of 22 fluorescently labelled TCRBV antibodies that detect 27 different TCRBVs. Twelve TCRBV antibodies were labelled with PE and 10 with FITC (Beckman Coulter). […] After another wash, cells were stained with CD4 (1:100) (APC anti-human CD4, eBioscience), CD8 (1:100) (Pacific blue anti-human CD8, BioLegend), TCRBV-PE (1:25) (Beckman Coulter) and TCRBV-FITC (1:25) (Beckman Coulter) antibodies (Supplementary Table 12) for 30 min. Finally, cells were sorted, seeded at 5 × 10^4 cells per well in T cell medium without h-IL-2 and rested for 1 day before stimulation with 2 × 10^5 cells per well of irradiated autologous PBMCs (45 Gy) and peptide (10 µM).
Two populations of CD4^+ PE-TCRVβ^+ and CD4^+ FITC-TCRVβ^+ were sorted and later mixed together. […] Specific amount of each cytokine/chemokine (pg/ml) was calculated by subtracting the cytokines in the negative control cultures (no peptide control). Source data

TCC88 = assay: Cytokine and chemokine secretion of TCC88 after peptide stimulation; settings: TCC88 supernatant after peptide stimulation; no peptide control subtracted; Fig. 3e
Excerpt: (§1) Fig. 3 Bacteria-derived and microbiota-derived peptides can stimulate TCC88 as well as the tumour antigen. a, Peptides with the highest predicted stimulatory scores were identified by searching various databases (see Methods). Numbers of unique 10-mer peptides within each database, synthesized peptides, TCC88 stimulatory peptides and the corresponding percentage of stimulatory peptides within each database are shown. […] Cytokine and chemokine secretion of TCC88 was examined and compared upon stimulation with these three different antigens. A specific amount of each cytokine and chemokine (pg ml^−1) was calculated by subtracting the cytokines in the negative control cultures (no peptide control). f, Cytotoxicity of TCC88 against the autologous tumour cell line after stimulation with 2 µM of SIN3A* and HGM3 (data represent the mean percentage of two replicate wells). E:T, effector to target. g, TCC88 was tested with HGM3 (10 µM) or SIN3A* (10 µM) peptides or both together (each 10 µM), and ^3H-thymidine incorporation was measured after 3 days (data represent the mean SI value of three replicate wells ± s.e.m.). Also see Extended Data Figs. 3 and 4. Source data
Supernatants from each experiment were harvested a day before adding thymidine and frozen at −20 °C. Cytokines were measured using ELISA for human IFNγ ELISA MAX (BioLegend), human GM-CSF DuoSet ELISA (R&D Systems) and bead-based assays. A Synergy H1 hybrid multi-mode reader (Agilent) was used to measure the absorbance. The LEGENDplex Multi-analyte Flow Assay kit (BioLegend) is a 13-plex human TH cytokine panel, which includes IFNγ, TNF, IL-2, IL-4, IL-5, IL-6, IL-9, IL-10, IL-13, IL-17A, IL-17F, IL-21 and IL-22. […] LSR Fortessa Flow Cytometer (BD Biosciences) was used to measure cytokines, and data were analysed using FlowJo (Tree Star). The Human XL Cytokine Luminex Performance Assay Fixed Panel (R&D Systems) contains 45 analytes covering a broad range of various chemokines and cytokines.

[2] = tested on: autologous glioblastoma cells; assay: T cell cytotoxicity assay of TCC88 against the autologous tumour cell line; settings: TCC88 stimulated with 2 µM peptide for 72 h; E:T 1:1 and 5:1; 24 h; duplicates; Fig. 3f
Excerpt: as §1, with “Source data […]” for “Source data”

[3] = tested on: bacteria/microbiota-reactive CFSEdim CD4+ TILs; assay: Proliferation of expanded CFSEdim CD4+ TILs that responded to the bacteria/microbiota peptide pool; settings: 5 days; 4 replicate wells; Fig. 4d
[4] = tested on: CD45RA− peripheral T cells; assay: Cytokine/chemokine secretion of unselected peripheral CD4+ T cells in response to LRP6; set-up: IL-1a / IL-1ß / IL-2 / IL-3 / IL-4 / IL-5 / IL-6 / IL-7 / IL-10 / IL-13 / IL-15 / IL-17A / IL-33 / TNF-a: unit not given here; settings: Unselected CD45RA- PBMCs, sheet 6c (right panel)
[5] = tested on: bacteria/microbiota-reactive peripheral CD4+ T cells; assay: Cytokine/chemokine secretion of selected peripheral CD4+ T cells in response to LRP6; set-up: IL-1a / IL-1ß / IL-2 / IL-3 / IL-4 / IL-5 / IL-6 / IL-7 / IL-10 / IL-13 / IL-15 / IL-17A / IL-33 / TNF-a: unit not given here
[6] = tested on: IPdBP-pre-stimulated peripheral memory CD4+ T cells; assay: Cytokine/chemokine response of IPdBP-pre-stimulated peripheral memory CD4+ T cells; set-up: IL-1α / IL-1β / IL-2 / IL-3 / IL-4 / IL-5 / IL-6 / IL-7 / IL-10 / IL-13 / IL-15 / IL-17A / IL-33 / TNF-α: unit not given here
[7] = Selected peripheral CD4+, sheet 6c (right panel)
[8] = secretion by IPdBP-pre-stimulated peripheral memory CD4+ T cells

Substance: Ac-LLEFNHSLGM-NH2 [HGM3]
- Proliferation (SI) of sorted CD4+ TILs ([1]; replicate 1): 1.141
- Proliferation (SI) of sorted CD4+ TILs ([1]; replicate 2): 1.14
- Proliferation (SI) of sorted CD4+ TILs ([1]; replicate 3): 1.525
- CCL20/MIP-3α (TCC88): 6.47 pg/mL
- CD40 Ligand (TCC88): 1548.01 pg/mL
- CXCL1/GROα (TCC88): 80.23 pg/mL
- CXCL2/GROβ (TCC88): 106.77 pg/mL
- CXCL8/IL-8 (TCC88): 0 pg/mL
- CXCL10/IP-10 (TCC88): 30.99 pg/mL
- Flt-3 Ligand (TCC88): 108.26 pg/mL
- Fractalkine (TCC88): 325.67 pg/mL
- GM-CSF (TCC88): 4861.7 pg/mL
- Granzyme B (TCC88): 2019.57 pg/mL
- IFN-α (TCC88): 2.54 pg/mL
- IFN-γ (TCC88): 781.13 pg/mL
- IL-1rα (TCC88): 2003.66 pg/mL
- IL-1α (TCC88): 12.29 pg/mL
- IL-1β (TCC88): 17.76 pg/mL
- IL-2 (TCC88): 80.09 pg/mL
- IL-3 (TCC88): 109.49 pg/mL
- IL-4 (TCC88): 85.48 pg/mL
- IL-5 (TCC88): 32.99 pg/mL
- IL-6 (TCC88): 151.16 pg/mL
- IL-7 (TCC88): 0.74 pg/mL
- IL-10 (TCC88): 3974.26 pg/mL
- IL-12p70 (TCC88): 26.12 pg/mL
- IL-13 (TCC88): 1591.43 pg/mL
- IL-15 (TCC88): 2.07 pg/mL
- IL-17A (TCC88): 1.97 pg/mL
- IL-17E/IL-25 (TCC88): 0 pg/mL
- IL-33 (TCC88): 17.4 pg/mL
- TNF-α (TCC88): 4132.48 pg/mL
- cytotoxic activity against autologous glioblastoma cells (in words) [2]: comparable

Substance: HPFALTLFEDILY [LRP6]
- recognition by CD4+ TILs pre-stimulated with the bacteria/microbiota peptide pool, by proliferation and/or GM-CSF secretion (in words) [3]: recognized
- CCL2/MCP-1 [4]: 0
- CCL3/MIP-1a [4]: 38350.7
- CCL4/MIP-1ß [4]: 1401.95
- CCL11/Eotaxin [4]: 0
- CCL19/MIP-3ß [4]: 0
- CCL20/MIP-3a [4]: 6.73
- CD40 Ligand [4]: 1116.41
- CXCL1/GROa [4]: 804.34
- CXCL2/GROß [4]: 0
- CXCL8/IL-8 [4]: 0
- CXCL10/IP-10 [4]: 0
- Flt-3 Ligand [4]: 15.31
- GM-CSF [4]: 488.27
- Granzyme B [4]: 0
- IFN-a [4]: 1.18
- IFN-γ [4]: 0
- IL-1a [4]: 104.35
- IL-1ra [4]: 0
- IL-1ß [4]: 600.74
- IL-2 [4]: 0
- IL-3 [4]: 1.65
- IL-4 [4]: 0
- IL-5 [4]: 0
- IL-6 [4]: 20465.9
- IL-7 [4]: 0.54
- IL-10 [4]: 27.41
- IL-12p70 [4]: 9.74
- IL-13 [4]: 0
- IL-15 [4]: 1.25
- IL-17A [4]: 0
- IL-17E/IL-25 [4]: 0
- IL-33 [4]: 7.76
- RANTES [4]: 0
- TNF-a [4]: 67.2
- CCL2/MCP-1 [5, 7]: 4526.33
- CCL3/MIP-1a [5, 7]: 3125.42
- CCL4/MIP-1ß [5, 7]: 4031.29
- CCL11/Eotaxin [5, 7]: 4.67
- CCL19/MIP-3ß [5, 7]: 6.3
- CCL20/MIP-3a [5, 7]: 6.57
- CD40 Ligand [5, 7]: 1738.81
- CXCL1/GROa [5, 7]: 373.82
- CXCL2/GROß [5, 7]: 350.46
- CXCL8/IL-8 [5, 7]: 2606.08
- CXCL10/IP-10 [5, 7]: 147.39
- Flt-3 Ligand [5, 7]: 28.81
- GM-CSF [5, 7]: 1627.51
- Granzyme B [5, 7]: 2119.45
- IFN-a [5, 7]: 1.01
- IFN-γ [5, 7]: 159.02
- IL-1a [5, 7]: 15.17
- IL-1ra [5, 7]: 3794.38
- IL-1ß [5, 7]: 23.43
- IL-2 [5, 7]: 10.94
- IL-3 [5, 7]: 107.37
- IL-4 [5, 7]: 4.49
- IL-5 [5, 7]: 283.76
- IL-6 [5, 7]: 167.44
- IL-7 [5, 7]: 0.7
- IL-10 [5, 7]: 475.26
- IL-12p70 [5, 7]: 16.63
- IL-13 [5, 7]: 400.29
- IL-15 [5, 7]: 2.76
- IL-17A [5, 7]: 0
- IL-17E/IL-25 [5, 7]: 0
- IL-33 [5, 7]: 5.21
- RANTES [5, 7]: 798.34
- TNF-a [5, 7]: 1408.41
- cytokine and chemokine production of selected peripheral CD4+ T cells (in words) ([5]; compared with the unselected cells, Extended Data Fig. 6c right): produced various cytokines and chemokines
- cytokine and chemokine profile of immunopeptidome-reactive peripheral CD4+ T cells (in words) ([6]; Extended Data Fig. 7c): secreted not only GM-CSF but also several other pro-inflammatory cytokines including IFNγ, TNF and granzyme B
- CCL2/MCP-1 [6, 8]: 0
- CCL3/MIP-1α [6, 8]: 3979.57
- CCL4/MIP-1β [6, 8]: 19527
- CCL11/Eotaxin [6, 8]: 3.84
- CCL19/MIP-3β [6, 8]: 12.07
- CCL20/MIP-3α [6, 8]: 17.43
- CD40 Ligand [6, 8]: 4129.61
- CXCL1/GROα [6, 8]: 0
- CXCL2/GROβ [6, 8]: 123.27
- CXCL8/IL-8 [6, 8]: 3466.89
- CXCL10/IP-10 [6, 8]: 353.48
- Flt-3 Ligand [6, 8]: 131.58
- GM-CSF [6, 8]: 8661.95
- Granzyme B [6, 8]: 7766.97
- IFN-α [6, 8]: 8.01
- IFN-γ [6, 8]: 1163.95
- IL-1rα [6, 8]: 0
- IL-1α [6, 8]: 19.6
- IL-1β [6, 8]: 20.52
- IL-2 [6, 8]: 11.3
- IL-3 [6, 8]: 158.99
- IL-4 [6, 8]: 7.36
- IL-5 [6, 8]: 1023.08
- IL-6 [6, 8]: 217.73
- IL-7 [6, 8]: 2.53
- IL-10 [6, 8]: 4192.28
- IL-12p70 [6, 8]: 24.59
- IL-13 [6, 8]: 3507.83
- IL-15 [6, 8]: 4.26
- IL-17A [6, 8]: 4.67
- IL-17E/IL-25 [6, 8]: 0
- IL-33 [6, 8]: 22.2
- RANTES [6, 8]: 10050.3
- TNF-α [6, 8]: 3505.52

Substance: REFTKATNVRLRF [LAMA5, vaccine pool peptide from laminin subunit α5]
- recognition by CD4+ TILs pre-stimulated with the bacteria/microbiota peptide pool, by proliferation and/or GM-CSF secretion (in words) [3]: recognized
